# Experimental data taken from patent US4443436A, “C-20-Modified macrolide derivatives of the macrolide antibiotics tylosin, desmycosin, macrocin, and lactenocin” (Eli Lilly and Company, priority 1982, dated 1984).
# Read-outs that look alike come from different tables or passages of the source.
# How the values were obtained:
# [1] = system: Staphylococcus aureus S13E; test: MIC, standard agar-dilution assay, Staphylococcus aureus S13E; type: cell-based
# [2] = system: Staphylococcus epidermidis EPI2; test: MIC, standard agar-dilution assay, Staphylococcus epidermidis EPI2; type: cell-based; settings: Staphylococcus epidermidis EPI2, agar dilution
# [3] = system: Staphylococcus epidermidis EPI1; test: MIC, standard agar-dilution assay, Staphylococcus epidermidis EPI1; type: cell-based
# [4] = system: Streptococcus pyogenes C203; test: MIC, standard agar-dilution assay, Streptococcus pyogenes C203; type: cell-based
# Mycoplasma hyorhinis = test: MIC, broth-dilution microtiter test, Mycoplasma hyorhinis; type: cell-based
# Source text: (§1) The MIC's in Table X were obtained using conventional broth-dilution microtiter tests.
# Staphylococcus aureus = test: MIC, broth-dilution microtiter test, Staphylococcus aureus; type: cell-based
# Source text: as §1
# [5] = system: Streptococcus Group D X66; test: MIC, standard agar-dilution assay, Streptococcus Group D X66; type: cell-based
# [6] = system: Staphylococcus aureus V41; test: MIC, standard agar-dilution assay, Staphylococcus aureus V41; type: cell-based
# Streptococcus bovis 80 = test: MIC, broth-dilution microtiter test, Streptococcus bovis 80; type: cell-based; settings: Streptococcus bovis 80, broth-dilution microtiter
# Source text: as §1
# Streptococcus Group 9960 = test: MIC, standard agar-dilution assay, Streptococcus Group 9960; type: cell-based; settings: Streptococcus Group 9960, agar dilution
# [7] = system: Staphylococcus aureus X1.1; test: MIC, standard agar-dilution assay, Staphylococcus aureus X1.1; type: cell-based
# [8] = system: Pasteurella hemolytica 22C; test: MIC, broth-dilution microtiter test, Pasteurella hemolytica 22C; type: cell-based; settings: Pasteurella hemolytica 22C, broth-dilution microtiter
# Source text: as §1
# Mycoplasma gallisepticum = test: MIC, broth-dilution microtiter test, Mycoplasma gallisepticum; type: cell-based
# Source text: as §1
# [9] = system: Haemophilus influenzae R252; test: MIC, standard agar-dilution assay, Haemophilus influenzae R252; type: cell-based; settings: Haemophilus influenzae R252, ampicillin-resistant strain
# [10] = system: Haemophilus influenzae Holt; test: MIC, standard agar-dilution assay, Haemophilus influenzae Holt; type: cell-based; settings: Haemophilus influenzae Holt, ampicillin-sensitive strain
# [11] = system: Staphylococcus aureus X400; test: MIC, standard agar-dilution assay, Staphylococcus aureus X400; type: cell-based
# [12] = system: Pasteurella multocida 60A; test: MIC, broth-dilution microtiter test, Pasteurella multocida 60A; type: cell-based; settings: Pasteurella multocida 60A, avian isolate, broth-dilution microtiter
# Source text: as §1
# [13] = system: Pasteurella multocida 17E; test: MIC, broth-dilution microtiter test, Pasteurella multocida 17E; type: cell-based; settings: Pasteurella multocida 17E, bovine isolate, broth-dilution microtiter
# Source text: as §1
# [14] = system: Streptococcus pneumoniae Park I; test: microbe, parasite or virus in culture; type: cell-based
# [15] = system: Streptococcus pyogenes C203; test: In vivo protection of mice experimentally infected with S. pyogenes C203; settings: Streptococcus pyogenes, mice, doses given 1 and 4 hours post-infection
# Method: The C-20 modified derivatives of this invention have shown in vivo antimicrobial activity against experimentally-induced infections in laboratory animals. When two doses of test compound were administered to mice experimentally infected with S. pyogenes C203, the activity observed was measured as an ED50 value [effective dose in mg/kg to protect 50% of the test animals: see Warren Wick, et al., J. Bacteriol. 81, 233-235 (1961)].
# [16] = Staphylococcus aureus S13E, agar dilution
# [17] = Staphylococcus epidermidis EPI1, agar dilution
# [18] = Streptococcus pyogenes C203, agar dilution
# [19] = Streptococcus Group D X66, agar dilution
# [20] = Staphylococcus aureus V41, penicillin-resistant strain, agar dilution
# [21] = Staphylococcus aureus X1.1, agar dilution
# [22] = Staphylococcus aureus X400, methicillin-resistant strain, agar dilution
# [23] = Streptococcus pneumoniae Park I, agar dilution
# [24] = Staphylococcus epidermidis, EPI1
# [25] = Streptococcus pyogenes C203, agar dilution, read-out: MIC
# [26] = Streptococcus Group D X66, agar dilution, read-out: MIC
# [27] = Streptococcus pneumoniae Park I, agar dilution, read-out: MIC
# [28] = C203, sc, subcutaneous, read-out: ED50, Subcutaneous
# [29] = C203, oral, read-out: ED50, Oral
# [30] = Streptococcus equinus, read-out: MIC
Compound,"MIC [1, 16] [µg/mL]",MIC [2] [µg/mL],"MIC [3, 17] [µg/mL]","MIC [4, 18] [µg/mL]","MIC [5, 19]","MIC [6, 20] [µg/mL]",MIC (Streptococcus Group 9960),"MIC [7, 21] [µg/mL]",MIC ([9]; agar dilution),MIC ([10]; agar dilution),"MIC [11, 22] [µg/mL]","MIC ([1]; Staphylococcus aureus, S13E) [µg/mL]","MIC [3, 24] [µg/mL]","MIC [4, 25] [µg/mL]","MIC [5, 26] [µg/mL]","MIC ([6]; Staphylococcus aureus, V41) [µg/mL]","MIC (Streptococcus Group 9960; GROUP9960, read-out: MIC) [µg/mL]","MIC ([7]; Staphylococcus aureus, X1.1) [µg/mL]",MIC ([9]; read-out: MIC) [µg/mL],MIC ([10]; read-out: MIC) [µg/mL],other results
"CCC1OC(=O)CC(O)C(C)C(OC2OC(C)C(OC3CC(C)(O)C(O)C(C)O3)C(N(C)C)C2OC(C)=O)C(CCOc2ccccc2)CC(C)C(=O)C=CC(C)=CC1COC1OC(C)C(O)C(OC)C1OC (centres unmarked) [Compound 64, 20-DH-20-O-Phenyl-2'-O-acetyltylosin]",2,2,2,2,"-- (Not active at 128 mcg/ml, the highest level tested)",2,"-- (Not active at 128 mcg/ml, the highest level tested)",2,"-- (Not active at 128 mcg/ml, the highest level tested)","-- (Not active at 128 mcg/ml, the highest level tested)",4,–,–,–,–,–,–,–,–,–,"MIC (Mycoplasma hyorhinis; Mycoplasma hyorhinis, broth-dilution microtiter): 50 µg/mL; MIC (Staphylococcus aureus; broth-dilution microtiter): 3.12 µg/mL; MIC (Streptococcus bovis 80): 12.5 µg/mL; MIC [8]: -- (Not active at 50 mcg/ml, the highest level tested); MIC (Mycoplasma gallisepticum; Mycoplasma gallisepticum, broth-dilution microtiter): 1.56 µg/mL; MIC [12]: -- (Not active at 50 mcg/ml, the highest level tested); MIC [13]: -- (Not active at 50 mcg/ml, the highest level tested)"
CCC1OC(=O)CC(O)C(C)C(OC2OC(C)C(OC3CC(C)(O)C(O)C(C)O3)C(N(C)C)C2O)C(CCOc2ncnc3ccccc23)CC(C)C(=O)C=CC(C)=CC1COC1OC(C)C(O)C(OC)C1OC (centres unmarked) [Compound 19a],0.5,0.5,1,4,32 µg/mL,0.5,64 µg/mL,0.5,"-- (Not active at 128 mcg/ml, the highest level tested)",128 µg/mL,1,–,–,–,–,–,–,–,–,–,"MIC [14, 23]: 4 µg/mL"
"CCC1OC(=O)CC(O)C(C)C(OC2OC(C)C(OC3CC(C)(O)C(O)C(C)O3)C(N(C)C)C2O)C(CCOc2ccc(-c3ccccc3)cc2)CC(C)C(=O)C=CC(C)=CC1COC1OC(C)C(O)C(OC)C1OC (centres unmarked) [Compound 18, 20-DH-20-O-(p-Phenylphenyl)tylosin]",–,–,–,–,–,–,–,–,–,–,–,2,2,2,8,2,> 128,2,> 128,> 128,"MIC ([2]; read-out: MIC): 0.5 µg/mL; MIC [14, 27]: 1 µg/mL; MIC ([11]; Staphylococcus aureus, X400): 2 µg/mL"
"CCC1OC(=O)CC(O)C(C)C(OC2OC(C)C(O)C(N(C)C)C2O)C(CCOCCc2ccccc2)CC(C)C(=O)C=CC(C)=CC1COC1OC(C)C(O)C(OC)C1OC (centres unmarked) [Compound 31, 20-DH-20-O-(Phenethyl)desmycosin]",–,–,–,–,–,–,–,–,–,–,–,0.25,0.25,–,8,0.25,16,0.25,–,–,"MIC ([2]; read-out: MIC): 0.12 µg/mL; MIC ([4]; Streptococcus pyogenes, C203): 1 µg/mL; MIC ([14]; Streptococcus pneumoniae): 0.25 µg/mL; MIC ([11]; Staphylococcus aureus, X400): 0.5 µg/mL"
"CCC1OC(=O)CC(O)C(C)C(OC2OC(C)C(OC3CC(C)(O)C(O)C(C)O3)C(N(C)C)C2O)C(CCOc2ccccc2)CC(C)C(=O)C=CC(C)=CC1COC1OC(C)C(O)C(OC)C1OC (centres unmarked) [Compound 4, 20-DH-20-O-Phenyltylosin]",–,–,–,–,–,–,–,–,–,–,–,1,1,2,128,1,128,1,> 128,> 128,"ED50 [15, 28]: > 6.3 mg/kg; ED50 [15, 29]: 35 mg/kg; MIC (Mycoplasma hyorhinis; Mycoplasma): 50 µg/mL; MIC (Staphylococcus aureus; broth-dilution microtiter, read-out: MIC): 3.12 µg/mL; MIC (Streptococcus bovis 80; [30]): 12.5 µg/mL; MIC ([8]; read-out: MIC): > 50 µg/mL; MIC (Mycoplasma gallisepticum; Mycoplasmoides gallisepticum): 1.56 µg/mL; MIC ([11]; Staphylococcus aureus X400, methicillin-resistant strain, agar dilution, read-out: MIC): 2 µg/mL; MIC ([12]; read-out: MIC): > 50 µg/mL; MIC ([13]; read-out: MIC): > 50 µg/mL"
CCC1OC(=O)CC(O)C(C)C(OC2OC(C)C(O)C(N(C)C)C2O)C(CCOc2ccc(CO)cc2)CC(C)C(=O)C=CC(C)=CC1COC1OC(C)C(O)C(OC)C1OC (centres unmarked) [Compound 51a],0.5,0.25,0.5,0.5,16 µg/mL,0.5,16 µg/mL,0.5,32 µg/mL,64 µg/mL,1,–,–,–,–,–,–,–,–,–,–
"CCC1OC(=O)CC(O)C(C)C(OC2OC(C)C(OC3CC(C)(O)C(O)C(C)O3)C(N(C)C)C2O)C(CCCl)CC(C)C(=O)C=CC(C)=CC1COC1OC(C)C(O)C(OC)C1OC (centres unmarked) [Compound 7, 20-DH-DO-20-Chlorotylosin]",–,–,–,–,–,–,–,–,–,–,–,1,1,2,–,1,> 128,1,> 128,> 128,"ED50 [15, 28]: > 6.3 mg/kg; ED50 [15, 29]: 11 mg/kg; MIC (Mycoplasma hyorhinis; Mycoplasma): 50 µg/mL; MIC (Staphylococcus aureus): 3.12 µg/mL; MIC [5]: > 128 µg/mL; MIC (Streptococcus bovis 80; [30]): 12.5 µg/mL; MIC ([8]; read-out: MIC): > 50 µg/mL; MIC [14, 27]: 32 µg/mL; MIC (Mycoplasma gallisepticum; Mycoplasmoides gallisepticum): 0.78 µg/mL; MIC ([11]; Staphylococcus aureus, X400): 2 µg/mL; MIC ([12]; read-out: MIC): > 50 µg/mL; MIC ([13]; read-out: MIC): > 50 µg/mL"
"CC(=O)O.CC(=O)O.CCC1OC(=O)CC(O)C(C)C(OC2OC(C)C(O)C(N(C)C)C2O)C(CCN)CC(C)C(=O)C=CC(C)=CC1COC1OC(C)C(O)C(OC)C1OC (centres unmarked) [Compound 51b, 20-DH-DO-20-Aminodesmycosin diacetate]",4,2,8,–,128 µg/mL,4,128 µg/mL,4,"-- (Not active at 128 mcg/ml, the highest level tested)",128 µg/mL,8,–,–,–,–,–,–,–,–,–,"MIC [14, 23]: 16 µg/mL"
